From patent publication US20120028358A1, “METHOD FOR INCREASING RETROVIRAL INFECTIVITY” (priority 2010, published 2012)
Entries after “also recorded” stand apart in the source; their conditions may differ.

How the values were obtained:
Phoenix cells = test: Viral titer of conditioned medium by quantitative RT-PCR (GFP region of viral RNA); assay type: cell-based
Procedure: Vectors and delivery systems: pBMN-GFP, a retroviral vector that expresses GFP driven by the MMLV's promoter in Phoenix and other cells was purchased from Orbigen, Inc. (San Diego, Calif.). Packaging cells were transfected with pBMN-GFP using FuGENE 6 reagent following manufacture instructions. Stably transfected Phoenix cells were selected by GFP expression using flow cytometry and then used for experiments. For virus propagation, packaging cells were cultured in growth medium for at least 12 hours. Virus was collected with cultured medium, filtered, supplemented with hexadimethrine bromide (polybrene) to a final concentration of 4 μg/ml and applied directly to target cells. The level of viral RNA in collected medium was determined by quantitative PCR using iScript One-Step RT-PCR kit (with SYBR Green, Bio-Rad, 170-8893) using primers for the GFP region of the viral RNA following manufacture instructions.
We first tested the ability of dexamethasone to increase retroviral protein production in Phoenix cells with integrated pro-viruses using GFP as a reporter. […] We then analyzed the Phoenix cells for GFP expression by flow cytometry. […] To determine if this increase in GFP expression correlated with an increase in viral titer in the supernatant, we performed quantitative RT-PCR on the conditioned medium using primers for the GFP region of the viral RNA.

rat PMVEC = test: Gamma-retroviral infection efficiency of PMVEC (percent fluorescent cells by FACS); assay type: cell-based
Procedure: Cell cultures: Phoenix Retroviral Expression System ecotropic and amphotropic packaging cells were purchased from Orbigen, Inc. (San Diego, Calif.). […] Rat pulmonary microvascular endothelial cells (PMVEC), were obtained from our cell culture core at the University of South Alabama (King J, et al. Structural and functional characteristics of lung macro and microvascular endothelial phenotypes. Microvascular Res. 2004, March, 67(2). 139-151). Human glioblastoma cells (U87MG), and human mammary carcinoma cells (T47D) were obtained from ATCC. All cells were cultured in DMEM, 10% FBS, 2 mmol L-Glutamine and used for experiments at passages 4-9. All cells were grown in humidified incubators at 37° C. in 5% CO2. Cells were harvested by 0.05% trypsin/0.53 mM EDTA digestion, washed, re-suspended in cultured medium and analyzed directly by FACScan in the University of South Alabama Flow Cytometry Core. For cell cycle analysis cellular DNA was stained with […] of propridium iodide for 20 minutes as described elsewhere (48) and then analyzed by FACScan.
Vectors and delivery systems: pBMN-GFP (Orbigen, Inc., San Diego, Calif.), a retroviral vector that expresses GFP driven by the MMLV's promoter in Phoenix and other cells was used. In some experiments Murine Stem Cell Virus (MSCV) expressing mCherry and the hybrid retroviral vector Friend Murine Embryonic-stem cell Virus (FMEV) [for Friend Mink Cell Focus-forming (FMCF)/Murine Embryonic Stem cell Virus (MESV)](31) expressing DsRed2 were used in addition to MMLV. Two lentiviral vectors pLemiR (Open Biosystems, Huntsville, Ala.) and pLVX-DsRed-Monomer-C1 (Clontech Laboratories, Inc., Mountain View, Calif.) harboring turboRFP and DsRed as reporters were also used for comparison to gamma-retroviruses. Packaging cells were transfected with retroviral vectors using FuGENE 6 reagent following the manufacturer's instructions. For virus propagation, packaging cells were cultured in growth medium for 12-18 hours. Virus was collected with cultured medium, filtered, supplemented with hexadimethrine bromide (polybrene) to a final concentration of 4 μg/ml and applied directly to target cells.
Gamma-retroviral backbones containing genes encoding fluorescent proteins as reporters were propagated in Phoenix ecotropic packaging cells. Viral-conditioned supernatant was collected and applied to target cells (rat pulmonary microvascular endothelial cells, PMVEC).

Q: What does the source list for `CC#C[C@]1(O)CC[C@H]2[C@@H]3CCC4=CC(=O)CCC4=C3[C@@H](c3ccc(N(C)C)cc3)C[C@@]21C` [mifepristone, 11-beta-(4-dimethylaminophenyl)-17-beta-hydroxy-17-alpha-(1-propynyl)-estra-4,9-dien-3-one]?
A: Effect on enhancing effect of dexamethasone on virus production (Phoenix cells; dexamethasone and mifepristone added to packaging cells at the same time): partially blocks; also recorded: completely inhibited; Viral levels in the medium (Phoenix cells; mifepristone 0-20 μmol, without dexamethasone): no effect; Enhancement at earlier time points after re-seeding (survival of non-integrated viral intermediates) (rat PMVEC; 1 μmol/L): did not demonstrate an enhanced effect; Percentage of GFP positive (infected) cells (rat PMVEC; 1 μmol/L added 1 hour after removal of virus (1 hour infection), vehicle 2.1): 3.7%; Infection of non-dividing (100% confluent) cells (rat PMVEC; 1 μmol/L, MMLV): no effect; Percentage of infected cells (rat PMVEC; 1 μmol/L, ecotropic MMLV, MSCV, FMEV backbones): almost doubled; Increase of infectivity rate (rat PMVEC; 1 μmol/L, growth-arrested PMVEC re-seeded, all time points): about 2.9 fold
